According to patent publication US20220323406A1, “METHODS AND COMPOSITIONS FOR DIFFERENTIATING STEM CELLS” (Massachusetts Institute of Technology, priority 2019, published 2022):
Where a name gives a salt, the structure may show the parent alone.

How the values were obtained:
[1] = system: ENR+CD organoids (ISC to Paneth cell differentiation); assay: Primary screen: CCh-stimulated lysozyme secretion LYZ.S, 2.5-D 384-well ENR+CD organoid differentiation; assay type: cell-based, mouse; settings: primary screen, FC relative to plate median
Text: (§1) High-throughput screening.

[2] = system: ENR+CD organoids (ISC to Paneth cell differentiation); assay: Secondary (validation) screen: LYZ.NS basal lysozyme secretion, 2.5-D 384-well ENR+CD organoids; assay type: cell-based, mouse; settings: 6-day ENR+CD, vs ENR+CD+DMSO
Method: (§2) Drugs were tested at a narrowed dose range around each treatment's identified optimal dose from the primary screen (4× below, 2× above and below).
as §1
(§3) Secondary lysozyme secretion assay screen. Confirmatory secondary screening with primary hits was performed using the above 384-well plate method. The screen was conducted with 4-plate replicates with a base media of ENR+CD. Media was supplemented with compound at day 0 and day 3 (n=8 well replicates per dose) at four different doses: two-fold above, two-fold below, and four-fold below the optimal final dose for each respective treatment. Additionally, each plate carried a large number of ENR+DMSO or ENR+CD+DMSO (vehicle) control wells (n=100 for ATP, and n=25 for LYZ.NS and LYZ.S) for robust normalization. ATP, non-stimulated lysozyme activity and CCh-stimulated lysozyme activity was again measured and the collected data was again processed in a custom R-script, per primary screen with slight modification. Values were log10 transformed, and a plate-wise FC was calculated for each well based on the median value of ENR+CD+DMSO (vehicle) control wells to normalize plate to plate variability.

ENR+CD organoids [3] = assay: Secondary (validation) screen: ATP (CTG) assay, 2.5-D 384-well ENR+CD organoids; assay type: cell-based, mouse; settings: 6-day ENR+CD, vs ENR+CD+DMSO
Method: as §2, §1, §3

[4] = system: ENR+CD organoids (ISC to Paneth cell differentiation); assay: Primary screen: basal (non-stimulated) lysozyme secretion LYZ.NS, 2.5-D 384-well ENR+CD organoid differentiation; assay type: cell-based, mouse; settings: for Dose.FC.LYZ.NS: FC relative to plate median; for Z.LYZ.NS: standard z score; for primary screen hit call (SSMD and z-scored FC cutoffs in both LYZ assays): LYZ.NS and LYZ.S, 0.08-10 uM, 6 days ENR+CD
Text: as §1

ENR+CD organoids [5] = assay: Primary screen: ATP (CellTiter-Glo 3D, CTG) cell number/viability, 2.5-D 384-well ENR+CD organoids; settings: primary screen; for Dose.FC.CTG: FC relative to plate median; for Z.CTG: standard z score;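 on all read-outs here: compounds given at plating and again on day 3 over a 6-day differentiation from ENR+CV stem-cell-enriched precursors, ATP measured on day 6, plate median as control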
[6] = system: ENR+CD organoids (ISC to Paneth cell differentiation); assay: Secondary (validation) screen: LYZ.S CCh-stimulated lysozyme secretion, 2.5-D 384-well ENR+CD organoids; assay type: cell-based, mouse; settings: 6-day ENR+CD, vs ENR+CD+DMSO
Method: as §2, §1, §3

N#CC[C@H](C1CCCC1)n1cc(-c2ncnc3[nH]ccc23)cn1 [Ruxolitinib (INCB018424), Ruxolitinib, reference compound] showed a Dose.FC.LYZ.S ([1]; dose 0.08 uM) of 0.150 log2 fold change, a Dose.FC.LYZ.S ([1]; dose 0.40 uM) of 0.067 log2 fold change and a Dose.FC.LYZ.S ([1]; dose 2.00 uM) of 0.105 log2 fold change. The Dose.FC.LYZ.S ([1]; dose 10.00 uM) was 0.317 log2 fold change, the Dose.FC.LYZ.NS ([2]; 2.50 uM) was −0.157 log2 fold change and the Dose.FC.LYZ.NS ([2]; 5.00 uM) was −0.138 log2 fold change. The Dose.FC.LYZ.NS ([2]; 10.00 uM) was −0.084 log2 fold change, the Dose.FC.LYZ.NS ([2]; 20.00 uM) was 0.065 log2 fold change and the Dose.FC.CTG (ENR+CD organoids [3]; 2.50 uM) was −0.014 log2 fold change. The Dose.FC.CTG (ENR+CD organoids [3]; 5.00 uM) was −0.224 log2 fold change, the Dose.FC.CTG (ENR+CD organoids [3]; 10.00 uM) was −0.153 log2 fold change and the Dose.FC.CTG (ENR+CD organoids [3]; 20.00 uM) was 0.166 log2 fold change. It also gave a Dose.FC.LYZ.NS ([4]; primary screen, dose 0.08 uM) of 0.122 log2 fold change, a Z.LYZ.NS ([4]; primary screen, dose 0.08 uM) of 1.066 and a Dose.FC.LYZ.NS ([4]; primary screen, dose 0.40 uM) of 0.070 log2 fold change. It also gave a Z.LYZ.NS ([4]; primary screen, dose 0.40 uM) of 0.611, a Dose.FC.LYZ.NS ([4]; primary screen, dose 2.00 uM) of 0.110 log2 fold change and a Z.LYZ.NS ([4]; primary screen, dose 2.00 uM) of 0.954. It also gave a Dose.FC.LYZ.NS ([4]; primary screen, dose 10.00 uM) of 0.295 log2 fold change, a Z.LYZ.NS ([4]; primary screen, dose 10.00 uM) of 2.569 and a Dose.FC.CTG (ENR+CD organoids [5]; dose 0.08 uM) of 0.458 log2 fold change. The Dose.FC.CTG (ENR+CD organoids [5]; dose 0.40 uM) was 0.363 log2 fold change, the Dose.FC.CTG (ENR+CD organoids [5]; dose 2.00 uM) was 0.445 log2 fold change and the Dose.FC.CTG (ENR+CD organoids [5]; dose 10.00 uM) was 0.477 log2 fold change. For the same compound, the Dose.FC.LYZ.S ([6]; 2.50 uM) was −0.182 log2 fold change, the Dose.FC.LYZ.S ([6]; 5.00 uM) was −0.217 log2 fold change and the Dose.FC.LYZ.S ([6]; 10.00 uM) was −0.168 log2 fold change. For the same compound, the Dose.FC.LYZ.S ([6]; 20.00 uM) was 0.027 log2 fold change.
NC(=O)c1ccc(-c2nc(-c3ccccn3)c(-c3ccc4c(c3)OCO4)[nH]2)cc1 [SB431542] showed a Dose.FC.LYZ.S ([1]; dose 0.08 uM) of 0.135 log2 fold change, a Dose.FC.LYZ.S ([1]; dose 0.40 uM) of 0.309 log2 fold change and a Dose.FC.LYZ.S ([1]; dose 2.00 uM) of 0.223 log2 fold change. For the same compound, the Dose.FC.LYZ.S ([1]; dose 10.00 uM) was 0.126 log2 fold change, the Dose.FC.LYZ.NS ([2]; 0.06 uM) was 0.089 log2 fold change and the Z.LYZ.NS ([2]; 0.06 uM) was 0.709. For the same compound, the repSSMD.LYZ.NS ([2]; 0.06 uM) was 1.073, the Dose.FC.LYZ.NS ([2]; 0.24 uM) was 0.105 log2 fold change and the Z.LYZ.NS ([2]; 0.24 uM) was 0.838. It also gave a repSSMD.LYZ.NS ([2]; 0.24 uM) of 0.830, a Dose.FC.LYZ.NS ([2]; 0.48 uM) of −0.016 log2 fold change and a Z.LYZ.NS ([2]; 0.48 uM) of −0.128. For the same compound, the repSSMD.LYZ.NS ([2]; 0.48 uM) was −0.149, the Dose.FC.LYZ.NS ([2]; […]) was 0.116 log2 fold change and the Dose.FC.CTG (ENR+CD organoids [3]; 0.06 uM) was 0.160 log2 fold change. It also gave a Z.CTG (ENR+CD organoids [3]; 0.06 uM) of 1.439, a repSSMD.CTG (ENR+CD organoids [3]; 0.06 uM) of 0.654 and a Dose.FC.CTG (ENR+CD organoids [3]; 0.24 uM) of 0.023 log2 fold change. For the same compound, the Z.CTG (ENR+CD organoids [3]; 0.24 uM) was 0.206, the repSSMD.CTG (ENR+CD organoids [3]; 0.24 uM) was 0.141 and the Dose.FC.CTG (ENR+CD organoids [3]; 0.48 uM) was 0.083 log2 fold change. For the same compound, the Z.CTG (ENR+CD organoids [3]; 0.48 uM) was 0.752, the repSSMD.CTG (ENR+CD organoids [3]; 0.48 uM) was 0.527 and the Dose.FC.CTG (ENR+CD organoids [3]; […]) was 0.120 log2 fold change. For the same compound, the “primary screen hit call (SSMD and z-scored FC cutoffs in both LYZ assays)” value [4] was “selected as a hit”, the “performance on both LYZ assays compared with LY215799” value ([4]; primary screen) was “performed almost identically to LY215799” and the Dose.FC.LYZ.NS ([4]; primary screen, dose 0.08 uM) was 0.141 log2 fold change. It also gave a Z.LYZ.NS ([4]; primary screen, dose 0.08 uM) of 1.225, a Dose.FC.LYZ.NS ([4]; primary screen, dose 0.40 uM) of 0.174 log2 fold change and a Z.LYZ.NS ([4]; primary screen, dose 0.40 uM) of 1.514. For the same compound, the Dose.FC.LYZ.NS ([4]; primary screen, dose 2.00 uM) was 0.187 log2 fold change, the Z.LYZ.NS ([4]; primary screen, dose 2.00 uM) was 1.632 and the Dose.FC.LYZ.NS ([4]; primary screen, dose 10.00 uM) was 0.040 log2 fold change. The Z.LYZ.NS ([4]; primary screen, dose 10.00 uM) was 0.346, the “increase of cell viability compared with LY215799” value (ENR+CD organoids [5]) was “outperformed LY215799” and the Dose.FC.CTG (ENR+CD organoids [5]; dose 0.08 uM) was 0.380 log2 fold change. For the same compound, the Z.CTG (ENR+CD organoids [5]; dose 0.08 uM) was 0.907, the Dose.FC.CTG (ENR+CD organoids [5]; dose 0.40 uM) was 0.473 log2 fold change and the Z.CTG (ENR+CD organoids [5]; dose 0.40 uM) was 1.130. It also gave a Dose.FC.CTG (ENR+CD organoids [5]; dose 2.00 uM) of 0.316 log2 fold change, a Z.CTG (ENR+CD organoids [5]; dose 2.00 uM) of 0.754 and a Dose.FC.CTG (ENR+CD organoids [5]; dose 10.00 uM) of 0.155 log2 fold change. The Z.CTG (ENR+CD organoids [5]; dose 10.00 uM) was 0.370, the Dose.FC.LYZ.S ([6]; 0.06 uM) was 0.067 log2 fold change and the Z.LYZ.S ([6]; 0.06 uM) was 0.514. The repSSMD.LYZ.S ([6]; 0.06 uM) was 0.855, the Dose.FC.LYZ.S ([6]; 0.24 uM) was 0.027 log2 fold change and the Z.LYZ.S ([6]; 0.24 uM) was 0.211. It also gave a repSSMD.LYZ.S ([6]; 0.24 uM) of 0.301, a Dose.FC.LYZ.S ([6]; 0.48 uM) of −0.050 log2 fold change and a Z.LYZ.S ([6]; 0.48 uM) of −0.387. It also gave a repSSMD.LYZ.S ([6]; 0.48 uM) of −0.449 and a Dose.FC.LYZ.S ([6]; […]) of 0.072 log2 fold change.
C[C@H](NCc1ccc(OCc2cccc(F)c2)cc1)C(N)=O [Safinamide Mesylate, reference compound] was tested, and the Dose.FC.LYZ.S ([1]; dose 0.08 uM) was 0.302 log2 fold change, the Dose.FC.LYZ.S ([1]; dose 0.40 uM) was 0.191 log2 fold change and the Dose.FC.LYZ.S ([1]; dose 2.00 uM) was 0.236 log2 fold change. For the same compound, the Dose.FC.LYZ.S ([1]; dose 10.00 uM) was 0.143 log2 fold change, the Dose.FC.LYZ.NS ([2]; 0.50 uM) was −0.156 log2 fold change and the Dose.FC.LYZ.NS ([2]; 1.00 uM) was −0.231 log2 fold change. It also gave a Dose.FC.LYZ.NS ([2]; 2.00 uM) of −0.046 log2 fold change, a Dose.FC.LYZ.NS ([2]; 4.00 uM) of −0.034 log2 fold change and a Dose.FC.CTG (ENR+CD organoids [3]; 0.50 uM) of −0.014 log2 fold change. It also gave a Dose.FC.CTG (ENR+CD organoids [3]; 1.00 uM) of −0.082 log2 fold change, a Dose.FC.CTG (ENR+CD organoids [3]; 2.00 uM) of −0.011 log2 fold change and a Dose.FC.CTG (ENR+CD organoids [3]; 4.00 uM) of −0.002 log2 fold change. For the same compound, the “primary screen hit call (SSMD and z-scored FC cutoffs in both LYZ assays)” value [4] was “sole hit in their respective pathway”, the Dose.FC.LYZ.NS ([4]; primary screen, dose 0.08 uM) was 0.160 log2 fold change and the Z.LYZ.NS ([4]; primary screen, dose 0.08 uM) was 1.394. The Dose.FC.LYZ.NS ([4]; primary screen, dose 0.40 uM) was 0.093 log2 fold change, the Z.LYZ.NS ([4]; primary screen, dose 0.40 uM) was 0.814 and the Dose.FC.LYZ.NS ([4]; primary screen, dose 2.00 uM) was 0.174 log2 fold change. For the same compound, the Z.LYZ.NS ([4]; primary screen, dose 2.00 uM) was 1.518, the Dose.FC.LYZ.NS ([4]; primary screen, dose 10.00 uM) was 0.057 log2 fold change and the Z.LYZ.NS ([4]; primary screen, dose 10.00 uM) was 0.499. The Dose.FC.CTG (ENR+CD organoids [5]; dose 0.08 uM) was 0.265 log2 fold change, the Dose.FC.CTG (ENR+CD organoids [5]; dose 0.40 uM) was 0.241 log2 fold change and the Dose.FC.CTG (ENR+CD organoids [5]; dose 2.00 uM) was 0.263 log2 fold change. The Dose.FC.CTG (ENR+CD organoids [5]; dose 10.00 uM) was 0.369 log2 fold change, the Dose.FC.LYZ.S ([6]; 0.50 uM) was −0.213 log2 fold change and the Dose.FC.LYZ.S ([6]; 1.00 uM) was −0.294 log2 fold change. The Dose.FC.LYZ.S ([6]; 2.00 uM) was −0.099 log2 fold change and the Dose.FC.LYZ.S ([6]; 4.00 uM) was −0.086 log2 fold change.
